≈ marks a conversion by molar mass, not a printed value. Read-outs that look alike come from different tables or passages of the source. Blank lines part the entries; values can stand above or below the compound they belong to.
Experiments:
[1] = tested on: Bacillus subtilis ATCC 6633; assay: antibacterial spectrum by the broth dilution method (MIC); type: cell-based; conditions: ATCC6633; Bacillus subtilis ATCC 6633, broth dilution; read-out: Minimum inhibitory concentration
Protocol: (§1) The antibacterial spectrum of the new guanidino derivatives of kasugamycin was determined by the broth dilution method and shown in Table 2 below.

Escherichia coli K-12 = assay: as above; type: cell-based; conditions: K12; Escherichia coli K-12, broth dilution; read-out: Minimum inhibitory concentration
Protocol: as §1

Escherichia coli NIHJ = assay: as above; type: cell-based; conditions: read-out: Minimum inhibitory concentration
Protocol: as §1

[2] = tested on: Klebsiella pneumoniae ATCC 10031; assay: as above; type: cell-based; conditions: ATCC10031; Klebsiella pneumoniae ATCC 10031, broth dilution; read-out: Minimum inhibitory concentration
Protocol: as §1

Proteus vulgaris OX 19 = assay: as above; type: cell-based; conditions: OX19; Proteus vulgaris OX 19, broth dilution; read-out: Minimum inhibitory concentration
Protocol: as §1

[3] = tested on: Pseudomonas fluorescence NIHJB-24; assay: as above; type: cell-based
Protocol: as §1

Salmonella paratyphi A = assay: as above; type: cell-based; conditions: Salmonella enterica, read-out: Minimum inhibitory concentration
Protocol: as §1

Shigella sonnei 191-66 = assay: as above; type: cell-based; conditions: 19166; Shigella sonnei 191-66, broth dilution; read-out: Minimum inhibitory concentration
Protocol: as §1

[4] = tested on: Staphylococcus aureus 6538P; assay: as above; type: cell-based; conditions: read-out: Minimum inhibitory concentration
Protocol: as §1

[5] = tested on: Pseudomonas fluorescens NIHJ B-254; assay: activity of eluted fractions against test organism; type: cell-based; conditions: purified white powder
Protocol: The isourea derivative dihydrochloride of kasugamycin (500 mg) prepared in Example 2 was dissolved into 10% ethylenediamine in methanol (w/w). The solution was allowed to stand at room temperature for 24 hours, diluted with 80 ml of isopropanol and concentrated to one-half volume under reduced pressure. The solid deposited by concentration was filtered, washed with ethyl ether and dried to give 457 mg of a crude guanidino derivative of kasugamycin as a white powder. The crude powder was dissolved in 4.5 ml of water and adsorbed on a column containing 12 ml of a cation-exchange resin Amberlite IRC-50(NH4 -type). The column was washed with water and followed with 0.3N NH4 OH, and developed with 0.3N H2 SO4. The activities of each eluted fraction were determined using Pseudomonas fluorescens NIHJ B-254 as a test organism. […] And the product formed crystals as the salt of p-hydroxyazobenzene-p'-sulfonic acid.

[6] = tested on: Pseudomonas aeruginosa No. 12; assay: protection test against infection in mice of Pseudomonas aeruginosa; type: in vivo, mice (dd strain) infected with Pseudomonas aeruginosa No. 12; conditions: for ED50: NO.12, ip, Pseudomonas aeruginosa, read-out: curative dose (CD50)
Protocol: The inoculum size of Pesudomonas aeruginosa No.12, which was 10 times of LD50 (3.1 × 10^8 cells/ml, 0.25 ml/mouse), was inoculated intraperitoneally to dd strain of mice (19-21 g body weight), and the treatment with the aforesaid kasugamycin-KG-8 was intraperitoneally injected at 0 and 6 hours after the infection.

[7] = acute toxicity to mice injected intravenously; type: in vivo; conditions: mouse, in vivo, iv
Text: (§2) The process of Example 3 was repeated using propylenediamine and butylenediamine, respectively in stead of the ethylenediamine. There were obtained 1D-3-O-{2-amino-4-[(2-aminopropyl)-guanidinol]-2,3,4,6-tetradeoxy-α- D-arabino-hexopyranosyl}-chiro-inositol and 1D-3-O-{2-amino-4-[(2-aminobutyl)-guanidinol]-2,3,4,6-tetradeoxy-α-D-arabino-hexopyranosyl]-chiro-inositol in yields of 31.2% and24.6%, respectively.

swine = assay: growth promoting effect on swine; type: in vivo; conditions: pigs, 10 g/ton in ration, 7 weeks
Text: Growth promoting effect of kasugamycin-KG-8 on swine is described below. Kasugamycin-KG-8 was mixed uniformly with ration and administered to pigs to examine its effect on growth promotion and improvement of feed utilization. Fourty-eight young pigs of 1 month old were assigned to two lots of […] pigs each and fed for 7 weeks. Lot 1 (Control): Supplied only with basal ration. Lot 2: Supplied with basal ration + kasugamycin-KG-8 10 g/ton. As the basal ration, one of standard composition was used. Swine raising was managed according to usual method. Each lot of […] pigs were fed in a concrete pen. Ration and drinking water were supplied ad libitum. The index of weight gain indicates beneficial effect of kasugamycin-KG-8 on swing growth promotion.

chicks = assay: growth promoting effect on chicks; type: in vivo, chicks of broiler type (White Rock × White Cornish); set-up: Weight gain: unit not given here; conditions: 10 g/ton in ration; for Index of weight gain: control = 100
Protocol: Growth promoting effect of kasugamycin-KG-8 on chicks is tested below. Kasugamycin-KG-8 was mixed uniformly with ration and administered to chicks to examine its effect on growth promotion and improvement of feed utilization. Eighty chicks of broiler type (White Rock × White Cornish) were assigned to two lots of 40 chicks each and for 8 weeks. Lot 1 (Control): Supplied only with basal ration. Lot 2: Supplied with basal ration + kasugamycin-KG-8 10 g/ton. As the basal ration was used one of standard composition. Chick rearing was managed according to the usual method. Ration and drinking water were supplied ad libitum. Tabel 5 indicates beneficial effect of kasugamycin-KG-8 on chick growth promotion.

solubility = type: physicochemical
mice = assay: acute toxicity to mice injected intravenously; type: in vivo; conditions: 350 mg/kg intravenously, five mice
Text: as §2

[8] = NIHJB24, Pseudomonas fluorescence NIHJB-24, broth dilution, read-out: Minimum inhibitory concentration

SMILES: C[C@H]1O[C@H](O[C@H]2[C@H](O)[C@@H](O)[C@@H](O)[C@H](O)[C@@H]2O)[C@@H](N)C[C@@H]1NC(=N)NCCN [kasugamycin-KG-8, 1D-3-O-{2-amino-4-[(2-aminoethyl)-guanidino]-2,3,4,6-tetradeoxy-α-D-arabino-hexopyranosyl}-chiro-inositol]
- MIC [1]: 0.39 µg/mL (≈ 0.991 µM)
- MIC (Escherichia coli K-12): 0.39 µg/mL (≈ 0.991 µM)
- MIC (Escherichia coli NIHJ): 0.78 µg/mL (≈ 1.98 µM)
- MIC [2]: 0.1 µg/mL (≈ 0.254 µM)
- MIC (Proteus vulgaris OX 19): 0.78 µg/mL (≈ 1.98 µM)
- MIC ([3]; Pseudomonas, NIHJB24, read-out: Minimum inhibitory concentration): 1.56 µg/mL (≈ 3.97 µM)
- MIC (Salmonella paratyphi A): 0.2 µg/mL (≈ 0.508 µM)
- MIC (Shigella sonnei 191-66): 1.56 µg/mL (≈ 3.97 µM)
- MIC [4]: 0.78 µg/mL (≈ 1.98 µM)
- activity relative to kasugamycin [5]: three times active than kasugamycin
- Number survived/Number infected ([6]; 0.031 mg/mouse at one time, day 0 after infection): 0/4
- Number survived/Number infected ([6]; 0.031 mg/mouse at one time, day 1 after infection): 4/4
- Number survived/Number infected ([6]; 0.031 mg/mouse at one time, day 7 after infection): 4/4
- Number survived/Number infected ([6]; 0.063 mg/mouse at one time, day 0 after infection): 0/4
- Number survived/Number infected ([6]; 0.063 mg/mouse at one time, day 1 after infection): 1/4
- Number survived/Number infected ([6]; 0.063 mg/mouse at one time, day 2 after infection): 2/4
- Number survived/Number infected ([6]; 0.063 mg/mouse at one time, day 7 after infection): 2/4
- Number survived/Number infected ([6]; 0.125 mg/mouse at one time, day 0 after infection): 0/4
- Number survived/Number infected ([6]; 0.125 mg/mouse at one time, day 3 after infection): 1/4
- Number survived/Number infected ([6]; 0.125 mg/mouse at one time, day 7 after infection): 1/4
- Number survived/Number infected ([6]; 0.25 mg/mouse at one time, day 0 after infection): 0/4
- Number survived/Number infected ([6]; 0.25 mg/mouse at one time, day 7 after infection): 0/4
- Number survived/Number infected ([6]; 0.5 mg/mouse at one time, day 0 after infection): 0/4
- Number survived/Number infected ([6]; 0.5 mg/mouse at one time, day 7 after infection): 0/4
- Number survived/Number infected ([6]; 1.0 mg/mouse at one time, day 0 after infection): 0/4
- Number survived/Number infected ([6]; 1.0 mg/mouse at one time, day 7 after infection): 0/4
- Number survived/Number infected ([6]; 2.0 mg/mouse at one time, day 0 after infection): 0/4
- Number survived/Number infected ([6]; 2.0 mg/mouse at one time, day 7 after infection): 0/4
- ED50 ([6]; mice, intraperitoneal at 0 and 6 hours after infection): 3.13 mg/kg
- LD50 [7]: 380 mg/kg
- Feed conversion (swine; control 3.05): 2.94
- Weight gain (swine; control 8.20): 9.09 kg
- Index of weight gain (swine; control = 100): 110.9
- Weight gain (chicks; grower period for 4 weeks, control 871.8): 957.8
- Index of weight gain (chicks; grower period for 4 weeks): 109.9
- Feed conversion (chicks; grower period, control 3.65): 3.56
- Weight gain (chicks; starter period of 4 weeks, control 458.4): 496.2
- Index of weight gain (chicks; starter period of 4 weeks): 108.2
- Feed conversion (chicks; starter period, control 2.15): 2.15
- Weight gain (chicks; total period through 8 weeks, control 1330.2): 1454.0
- Index of weight gain (chicks; total period through 8 weeks): 109.3
- Feed conversion (chicks; total period, control 3.12): 3.07
- solubility (solubility; other organic solvents): scarcely soluble or insoluble in other organic solvents
- solubility (solubility; water, dimethylformamide and low alcohols): soluble in water, dimethylformamide and low alcohols

SMILES: C[C@H]1O[C@H](O[C@H]2[C@H](O)[C@@H](O)[C@@H](O)[C@H](O)[C@@H]2O)[C@@H](N)C[C@@H]1NC(=N)NCCS(=O)(=O)O [Compound 8]
- MIC [1]: 100 µg/mL (≈ 218 µM)
- MIC (Escherichia coli K-12): > 100 µg/mL
- MIC (Escherichia coli NIHJ): > 100 µg/mL
- MIC [2]: > 100 µg/mL
- MIC (Proteus vulgaris OX 19): > 100 µg/mL
- MIC [3, 8]: 50 µg/mL (≈ 109 µM)
- MIC (Salmonella paratyphi A): 50 µg/mL (≈ 109 µM)
- MIC (Shigella sonnei 191-66): > 100 µg/mL
- MIC [4]: 12.5 µg/mL (≈ 27.3 µM)

SMILES: CNCCN(C)C(=N)N[C@H]1C[C@H](N)[C@@H](O[C@H]2[C@H](O)[C@@H](O)[C@@H](O)[C@H](O)[C@@H]2O)O[C@@H]1C [Compound 3]
- MIC [1]: 25 µg/mL (≈ 59.3 µM)
- MIC (Escherichia coli K-12): 100 µg/mL (≈ 237 µM)
- MIC (Escherichia coli NIHJ): 100 µg/mL (≈ 237 µM)
- MIC [2]: 100 µg/mL (≈ 237 µM)
- MIC (Proteus vulgaris OX 19): 50 µg/mL (≈ 119 µM)
- MIC [3, 8]: 50 µg/mL (≈ 119 µM)
- MIC (Salmonella paratyphi A): 50 µg/mL (≈ 119 µM)
- MIC (Shigella sonnei 191-66): 100 µg/mL (≈ 237 µM)
- MIC [4]: 50 µg/mL (≈ 119 µM)

- MIC (Escherichia coli NIHJ): 0.39 µg/mL (≈ 0.957 µM)
- MIC [2]: 0.2 µg/mL (≈ 0.491 µM)
SMILES: C[C@H]1O[C@H](O[C@H]2[C@H](O)[C@@H](O)[C@@H](O)[C@H](O)[C@@H]2O)[C@@H](N)C[C@@H]1NC(=N)NCCCN [R1 =--(CH2)3 NH2, R2 =H]

SMILES: CC(N)CNC(=N)NC1CC(N)C(OC2C(O)C(O)C(O)C(O)C2O)OC1C [Example 4, 1D-3-O-{2-amino-4-[(2-aminopropyl)-guanidinol]-2,3,4,6-tetradeoxy-α-D-arabino-hexopyranosyl}-chiro-inositol]
- deaths after intravenous injection (mice): none of them was dead

SMILES: C[C@H]1O[C@H](O[C@H]2[C@H](O)[C@@H](O)[C@@H](O)[C@H](O)[C@@H]2O)[C@@H](N)C[C@@H]1NC(=N)C(=O)O [Kasugamycin]
- MIC [1]: > 100 µg/mL
- MIC (Escherichia coli K-12): 100 µg/mL (≈ 264 µM)
- MIC (Escherichia coli NIHJ): 100 µg/mL (≈ 264 µM)
- MIC [2]: 50 µg/mL (≈ 132 µM)
- MIC (Proteus vulgaris OX 19): 100 µg/mL (≈ 264 µM)
- MIC [3, 8]: 3.13 µg/mL (≈ 8.25 µM)
- MIC (Salmonella paratyphi A): 50 µg/mL (≈ 132 µM)
- MIC (Shigella sonnei 191-66): > 100 µg/mL
- MIC [4]: 50 µg/mL (≈ 132 µM)
- ED50 [6]: 35.5 mg/kg

SMILES: C[C@H]1O[C@H](O[C@H]2[C@H](O)[C@@H](O)[C@@H](O)[C@H](O)[C@@H]2O)[C@@H](N)C[C@@H]1NC(=N)NCCCCN [Compound 4]
- MIC [1]: 0.78 µg/mL (≈ 1.85 µM)
- MIC (Escherichia coli K-12): 1.56 µg/mL (≈ 3.7 µM)
- MIC (Escherichia coli NIHJ): 12.5 µg/mL (≈ 29.7 µM)
- MIC [2]: 1.56 µg/mL (≈ 3.7 µM)
- MIC (Proteus vulgaris OX 19): 1.56 µg/mL (≈ 3.7 µM)
- MIC [3, 8]: 3.13 µg/mL (≈ 7.43 µM)
- MIC (Salmonella paratyphi A): 0.78 µg/mL (≈ 1.85 µM)
- MIC (Shigella sonnei 191-66): 6.25 µg/mL (≈ 14.8 µM)
- MIC [4]: 0.2 µg/mL (≈ 0.475 µM)

SMILES: C[C@H]1O[C@H](O[C@H]2[C@H](O)[C@@H](O)[C@@H](O)[C@H](O)[C@@H]2O)[C@@H](N)C[C@@H]1NC(=N)NCCCCN [Example 5, 1D-3-O-{2-amino-4-[(2-aminobutyl)-guanidinol]-2,3,4,6-tetradeoxy-α-D-arabino-hexopyranosyl]-chiro-inositol]
- deaths after intravenous injection (mice): one of them was dead

— US3968100A, “Guanidio derivatives of kasugamycin and their production” (Zaidan Hojin Biseibutsu Kagaku Kenkyu Kai, priority 1972, dated 1976)
